Assay results taken from US20260069582A1, “POLYMORPH OF GLP-1R AGONIST COMPOUND, PREPARATION METHOD THEREFOR, AND USE THEREOF” (MINDRANK THERAPEUTICS (SUZHOU) NEW DRUG RESEARCH AND …, priority 2022, published 2026).
Where a name gives a salt, the structure may show the parent alone. Read-outs that look alike come from different tables or passages of the source. One block for each compound: values may come before it.

How the values were obtained:
[1] = Solid state stability study (purity by HPLC and crystal form change); assay type: physicochemical; conditions: for Initial purity (%): before storage, HPLC
[2] = Equilibrium solubility study in biological media; assay type: physicochemical; conditions: 37 °C, thermodynamic from solid, 37±2° C.
Description: In the tests, the solids were suspended in corresponding buffers to formulate suspensions (˜10 mg/mL), and the suspensions were mixed at 37±2° C. After 24 h, samples of the suspensions were taken. The supernatant was filtered, and the concentration was determined.

[3] = Hygroscopic behavior test by dynamic vapor sorption (DVS); assay type: physicochemical; conditions: 25° C.
Excerpt: The experimental method for characterizing an acid salt or a base salt of compound I by dynamic vapor sorption (DVS) was as follows: A small amount of a powder of a polymorph of compound I was taken and placed into a precise sample tray that matches the instrument. After the sample was loaded, the sample tray was sent into the instrument for analysis. In this patent, the instrument model used in the dynamic vapor sorption analysis was Intrinsic PLUS; the experimental parameter was set as follows: A constant temperature of 25° C. was set; the mass percent change rate per unit time (dm/dt)=0.02%/min was used as a criterion for determining that a balance is achieved; the program humidity change cycle was set as follows: The initial relative humidity was 0%, and the endpoint relative humidity was 90%.

[4] = Drug absorption experiment in SD rats, intravenous administration; assay type: in vivo; conditions: rat, plasma, tail vein injection
Description: Blood samples were collected at different time points before and after administration and then separated to prepare plasma. The concentration of the drug in plasma was determined by liquid chromatography-tandem mass spectrometry, and pharmacokinetic parameters were calculated using a non-compartmental model.

[5] = Drug absorption experiment in SD rats, intragastric administration; assay type: in vivo; conditions: for absolute bioavailability: after dose correction, based on AUC0-t
Description: Blood samples were collected at different time points after administration and then separated to prepare plasma. The concentration of the drug in plasma was determined by liquid chromatography-tandem mass spectrometry, and pharmacokinetic parameters were calculated using a non-compartmental model.

[6] = Transformation of metastable crystal forms on drying or standing (XRPD); assay type: physicochemical
Description: After being stirred at room temperature for about 3 d, the mixture was filtered under vacuum. The resulting filter cake was metastable crystal form J of compound I. The product was analyzed and characterized by XRPD (FIG. 28).
The mixture was stirred at room temperature for 16 h and filtered. The resulting filter cake was metastable crystal form K of compound I. The product was analyzed and characterized by XRPD (FIG. 29).
The mixture was stirred at room temperature for about 3 d and filtered. The filter cake was dried at 50° C. for 16 h to give metastable crystal form L of compound I. The product was analyzed and characterized by XRPD (FIG. 30).
The mixture was stirred at 5° C. for about 1 d and filtered. The resulting filter cake was metastable crystal form M of compound I. The product was analyzed and characterized by XRPD (FIG. 31).
Crystal form C of compound I was heated to 80° C. at 10° C./min to give metastable crystal form N of compound I. The product was analyzed and characterized by XRPD (FIG. 32).

[7] = 25° C./60% RH, 7 days (long-term storage)
[8] = 40° C./75% RH, 7 days (accelerated)
[9] = 60° C., RH<30%, 7 days (high-temperature)

SMILES: O=C(O)c1ccc2nc(CN3CCC(Oc4cccc(COc5ccc(Cl)cc5F)n4)CC3)n(C[C@@H]3CCO3)c2c1 [Crystal form B of compound I, (S)-2-((4-((6-((4-chloro-2-fluorophenoxy)methyl)pyridin-2-yl)oxy)piperidin-1-yl)methyl)-1-(oxetan-2-ylmethyl)-1H-benzo[d]imidazole-6-carboxylic acid tromethamine salt (1:1)]
Purity (%) [1, 7]: 98.74%
Purity (%) [1, 8]: 98.73%
Purity (%) [1, 9]: 98.67%
Initial purity (%) [1]: 98.80%

SMILES: O=C(O)c1ccc2nc(CN3CCC(Oc4cccc(COc5ccc(Cl)cc5F)n4)CC3)n(C[C@@H]3CCO3)c2c1 [Crystal form A of compound I, (S)-2-((4-((6-((4-chloro-2-fluorophenoxy)methyl)pyridin-2-yl)oxy)piperidin-1-yl)methyl)-1-(oxetan-2-ylmethyl)-1H-benzo[d]imidazole-6-carboxylic acid tromethamine salt (1:1)]
solubility thermodynamic at 24 h ([2]; FaSSIF): 110 µg/mL
solubility thermodynamic at 24 h ([2]; FeSSIF): 450 µg/mL
solubility thermodynamic at 24 h ([2]; water, H2O): 440 µg/mL
Purity (%) [1, 7]: 99.18%
Purity (%) [1, 8]: 99.17%
Purity (%) [1, 9]: 98.83%
Initial purity (%) [1]: 99.30%
Sample weight change at 80% RH (%) ([3]; DVS, 80% RH): 1.03%
Whether the crystal form is changed ([3]; after DVS, 0-90% RH): No
AUC(0-t) ([4]; 2 mg/kg): 2440 ng·h/mL
Cmax ([4]; 2 mg/kg): 7640 ng/mL
half-life ([4]; 2 mg/kg): 1.88 h
AUC(0-t) ([5]; 5 mg/kg): 2670 ng·h/mL
Cmax ([5]; 5 mg/kg): 847 ng/mL
Tmax ([5]; 5 mg/kg): 0.25 h
t1/2 ([5]; 5 mg/kg): 3.59 h
absolute bioavailability [5]: 43.7%

SMILES: O=C(O)c1ccc2nc(CN3CCC(Oc4cccc(COc5ccc(Cl)cc5F)n4)CC3)n(C[C@@H]3CCO3)c2c1 [crystal form J, (S)-2-((4-((6-((4-chloro-2-fluorophenoxy)methyl)pyridin-2-yl)oxy)piperidin-1-yl)methyl)-1-(oxetan-2-ylmethyl)-1H-benzo[d]imidazole-6-carboxylic acid tromethamine salt (1:1)]
Crystal form transformation ([6]; dried at 40° C. for 16 h): transformed to crystal form A

SMILES: O=C(O)c1ccc2nc(CN3CCC(Oc4cccc(COc5ccc(Cl)cc5F)n4)CC3)n(C[C@@H]3CCO3)c2c1 [Free form of compound I, (S)-2-((4-((6-((4-chloro-2-fluorophenoxy)methyl)pyridin-2-yl)oxy)piperidin-1-yl)methyl)-1-(oxetan-2-ylmethyl)-1H-benzo[d]imidazole-6-carboxylic acid]
Purity (%) [1, 7]: 98.94%
Purity (%) [1, 8]: 95.86%
Purity (%) [1, 9]: 89.15%
Initial purity (%) [1]: 98.98%
AUC(0-t) ([4]; 1 mg/kg): 1280 ng·h/mL
Cmax ([4]; 1 mg/kg): 3200 ng/mL
half-life ([4]; 1 mg/kg): 3.89 h
half-life ([5]; SD, rat, plasma, po, 5 mg/kg): 2.84 h
AUC(0-t) ([5]; SD, rat, plasma, po, 5 mg/kg, read-out: AUC0-t): 1400 ng·h/mL
Cmax ([5]; SD, rat, plasma, po, 5 mg/kg, read-out: Cmax): 600 ng/mL
Tmax ([5]; SD, rat, plasma, po, 5 mg/kg, read-out: Tmax): 0.5 h
absolute bioavailability [5]: 21.8%

SMILES: O=C(O)c1ccc2nc(CN3CCC(Oc4cccc(COc5ccc(Cl)cc5F)n4)CC3)n(C[C@@H]3CCO3)c2c1 [Crystal form I of compound I, (S)-2-((4-((6-((4-chloro-2-fluorophenoxy)methyl)pyridin-2-yl)oxy)piperidin-1-yl)methyl)-1-(oxetan-2-ylmethyl)-1H-benzo[d]imidazole-6-carboxylic acid tromethamine salt (1:1)]
Purity (%) [1, 7]: 98.41%
Purity (%) [1, 8]: 98.47%
Purity (%) [1, 9]: 98.48%
Initial purity (%) [1]: 98.44%

Next, values leading:

Crystal form transformation ([6]; dried at 50° C. for 16 h): transformed to crystal form B
SMILES: O=C(O)c1ccc2nc(CN3CCC(Oc4cccc(COc5ccc(Cl)cc5F)n4)CC3)n(C[C@@H]3CCO3)c2c1 [crystal form N, (S)-2-((4-((6-((4-chloro-2-fluorophenoxy)methyl)pyridin-2-yl)oxy)piperidin-1-yl)methyl)-1-(oxetan-2-ylmethyl)-1H-benzo[d]imidazole-6-carboxylic acid tromethamine salt (1:1)]

Crystal form transformation ([6]; dried under vacuum at room temperature for about 16 h): transformed to crystal form D
Crystal form transformation ([6]; let stand in an open flask at room temperature for about 16 h): transformed to crystal form D
SMILES: O=C(O)c1ccc2nc(CN3CCC(Oc4cccc(COc5ccc(Cl)cc5F)n4)CC3)n(C[C@@H]3CCO3)c2c1 [crystal form L, (S)-2-((4-((6-((4-chloro-2-fluorophenoxy)methyl)pyridin-2-yl)oxy)piperidin-1-yl)methyl)-1-(oxetan-2-ylmethyl)-1H-benzo[d]imidazole-6-carboxylic acid tromethamine salt (1:1)]

Crystal form transformation ([6]; dried at 50° C. for 24 h): transformed to crystal form A
SMILES: O=C(O)c1ccc2nc(CN3CCC(Oc4cccc(COc5ccc(Cl)cc5F)n4)CC3)n(C[C@@H]3CCO3)c2c1 [crystal form K, (S)-2-((4-((6-((4-chloro-2-fluorophenoxy)methyl)pyridin-2-yl)oxy)piperidin-1-yl)methyl)-1-(oxetan-2-ylmethyl)-1H-benzo[d]imidazole-6-carboxylic acid tromethamine salt (1:1)]
